Publication PMC9228468, “Relevance of Therapeutic Drug Monitoring of Tyrosine Kinase Inhibitors in Routine Clinical Practice: A Pilot Study” (Pharmaceutics, 2022)

How the values were obtained:
[1] = Incidence of toxicity (CTCAE grades), first vs last monitored cycle; format: in vivo, human
Method: (§1) Patients’ medical records were reviewed with the aim of studying all possible factors related to the patient and the medication that may influence the evolution of the plasma concentrations of TKIs. Sociodemographic and anthropometric, pharmacological treatment, clinical, toxicity and therapeutic drug monitoring data were collected. Treatment response was determined according to the […]. Adverse events were recorded by grade according to the Common Terminology Criteria for Adverse Events version 3.0 (CTCAE v 3.0).
To compare the variation in categorical variables (rash, diarrhea, fatigue, abdominal pain, hypertension, and mucositis) between the first and the last monitored cycle, the non-parametric chi-square test was performed.

[2] = cited from earlier work
[3] = cited from earlier work; remark: listed apart in the source
[4] = Therapeutic drug monitoring: plasma levels by HPLC-UV, dose-normalized plasma concentrations; format: in vivo, human
Method: (§2) Monitoring was carried out in all cases after at least fifteen days from the start of treatment, when the plasma levels of the drug were considered at steady state. Blood samples were extracted just before ingestion of the tablet/s and at different times after ingestion. The drug was administered in the fasted state and patients were told they could eat food after the second blood sample was drawn. Sampling times, which are defined for each drug in Table 1, were selected based on the optimal sampling theory and pharmacokinetic models previously published in the scientific literature. […] The total blood volume extracted was between 4 and 5 mL for each sample. All samples were centrifuged after extraction at 3500 r.p.m. for 10 min at room temperature and the plasma obtained was frozen at −80 °C until bioanalysis.
Bioanalysis was carried out using high-performance liquid chromatography (HPLC) coupled with ultraviolet (UV) detection.
As the stationary phase, an Ultrabase® C18 chromatographic column, 4.6 mm in diameter by 150 mm in length, made of stainless steel and filled with a C18 reversed-phase siliceous substrate with a particle size of 5 µm, was used. A mixture of 40% of 0.02 M ammonium acetate, pH = 7, and 60% acetonitrile: methanol at a ratio of 70:30 (v/v) was used as the mobile phase. The linearity of the technique included a concentration range of 0.05–7.5 µg/mL. The limit of quantification was 0.5 µg/mL. Solid–liquid extraction was used and the analysis time was 9 min.
The stationary phase used was an Ultrabase® C18 chromatographic column, 4.6 mm in diameter by 150 mm in length, made of stainless steel and filled with a C18 reversed-phase siliceous substrate with a particle size of 5 µm. The mobile phase used was a 40% mixture of 0.02 M ammonium acetate, pH = 7, and 60% acetonitrile: methanol at a ratio of 70:30 (v/v). The linearity of the technique included a concentration range of 0.05–5 µg/mL. The limit of quantification was 0.5 µg/mL. Solid–liquid extraction was used and the analysis time was 10 min.
The stationary phase used was a Kromasil® C18 chromatographic column, 4.6 mm in diameter by 150 mm in length, made of stainless steel and filled with a C18 reversed-phase siliceous substrate with a particle size of 5 µm. The mobile phase used was a mixture of acetonitrile and 0.02 M ammonium acetate, pH = 3.5, at a ratio of 53:47 (v/v). The linearity of the technique included a concentration range of 0.02–10 µg/mL. The limit of quantification was 0.2 µg/mL. Liquid–liquid extraction was used and the analysis time was 12 min [51].
The stationary phase used was a Kromasil® C18 chromatographic column, 4.6 mm in diameter by 150 mm in length, made of stainless steel and filled with a C18 reversed-phase siliceous substrate with a particle size of 5 µm. The mobile phase used was a mixture of acetonitrile and 0.02 M ammonium acetate, pH = 3.5, at a ratio of 53:47 (v/v). The linearity of the technique included a concentration range of 0.1–20 µg/mL. The limit of quantification was 0.1 µg/mL. Liquid–liquid extraction was used and the analysis time was 12 min [52].
The program was compiled with the DIGITAL Visual Fortran version 6.6C program. The graphics were made with the S-Plus 6.1 Professional Edition program for Windows (Insightful, Seattle, WA, USA). A one-compartment pharmacokinetic model with first-order absorption and elimination kinetics was selected to describe erlotinib plasma concentrations, as performed previously by other authors. The fixed-effect parameters estimated by the model were V (volume of distribution, L), CL (plasma clearance, L/h) and Ka (absorption constant). The model included plasma ALT concentration and age as covariates in CL, and weight in V.
The model was parameterized in terms of D1 (zero-order absorption duration), V and CL, and included the plasma concentration of α 1-acid glycoprotein as a covariate in CL. […]

[5] = Survival analysis (Kaplan-Meier, PFS and OS); format: in vivo, human; conditions: real-world cancer patients with TDM
Method: as §1
To assess the relationship between treatments protocols and disease progression or mortality, a Kaplan–Meier survival curve was plotted.

[6] = Groups of patients according to exposure and toxicity; format: in vivo, human
[7] = TDM-guided dose adjustment recommendations per monitored cycle; format: in vivo, human
Method: Patients included in this study received drugs at doses previously established by their doctors, according to data sheet indications and clinical judgment. In all cases, drug dose was prescribed before the patient enrolled onto this study and was not affected by this study prior to enrollment.
as §2

[8] = phase II study of 57 NSCLC patients

C#Cc1cccc(Nc2ncnc3cc(OCCOC)c(OCCOC)cc23)c1 [Erlotinib, erlotinib]
Patients with toxicity ([1]; at start of treatment): 9 (45.4) n. (%)
patients with grade 2 skin rash ([1]; first monitored cycle): 13.6%
patients with grade 3 mucositis ([1]; first monitored cycle): 4.5%
patients with grade 3 thrombocytopenia ([1]; first monitored cycle): 4.5%
Toxicity: Anemia G1 ([1]; in vivo): 4 (18.1) n. (%)
Toxicity: Anemia G2 ([1]; in vivo): 2 (9.1) n. (%)
Toxicity: Diarrhea G2 ([1]; in vivo): 3 (13.6) n. (%)
Toxicity: Fatigue G2 ([1]; in vivo): 2 (9.1) n. (%)
Toxicity: Mucositis G3 ([1]; in vivo): 1 (4.5) n. (%)
Toxicity: Skin rash G1 ([1]; in vivo): 5 (22.7) n. (%)
Toxicity: Skin rash G2 ([1]; in vivo): 3 (13.6) n. (%)
Toxicity: Skin rash G3 ([1]; in vivo): 3 (13.6) n. (%)
analytical parameters related to toxicity and defined toxicities, first vs last monitored cycle ([1]; in vivo): no significant differences
patients who developed toxicity at the start of treatment ([1]; in vivo): 45.4%
patients with grade 2 skin rash ([1]; last monitored cycle): 14.3%
patients with grade 3 mucositis ([1]; last monitored cycle): 0%
patients with grade 3 rash ([1]; last monitored cycle): 7.1%
patients with grade 3 thrombocytopenia ([1]; last monitored cycle): 0%
Toxicity: RI G1 ([1]; renal insufficiency grade 1 (IR G1 for sorafenib)): 9 (45.4) n. (%)
Toxicity: RI G2 ([1]; renal insufficiency grade 2): 4 (18.1) n. (%)
Toxicity: Thromb. G3 ([1]; trombopenia grade 3): 1 (4.5) n. (%)
OS ([2]; 26 NSCLC patients): 16.9 months
PFS ([2]; 26 NSCLC patients): 6.3 months
OS of patients with grade 1 rash [2, 8]: 8.5 months
OS of patients with grade 2 rash [2, 8]: 19.6 months
OS of patients without rash [2, 8]: 1.5 months
fraction of a single dose eliminated in the urine [3]: 9%
patients with plasma concentrations below the target ([3]; target 500 mg/L, lung cancer patients): 11.1%
mean interpatient variability in dose-normalized plasma concentrations (CV) ([4]; first monitored cycle): 46.2%
mean interpatient variability in dose-normalized plasma concentrations (CV) ([4]; last monitored cycle, after TDM and dose adjustments): 44%
Overall Survival, Median [5]: 32 Months
Progression-Free Survival, Median [5]: 8 Months
% patients, Group 1 ([6]; Drug concentrations above target level: No, Toxicities: No): 18.2%
% patients, Group 3 ([6]; Drug concentrations above target level: No, Toxicities: Yes): 22.7%
% patients, Group 2 ([6]; Drug concentrations above target level: Yes, Toxicities: No): 13.6%
% patients, Group 4 ([6]; Drug concentrations above target level: Yes, Toxicities: Yes): 45.5%
monitored cycles with recommendation to decrease the dose ([7]; concentrations above therapeutic range): 3.6%
monitored cycles with recommendation to increase the prescribed dose ([7]; concentrations below target therapeutic range): 38.2%
monitored cycles with recommendation to maintain the current dose ([7]; concentrations within therapeutic range): 54.5%
monitored cycles with recommendation to suspend/suppress the drug ([7]; in vivo): 3.6%
